Patent US20230141887A1, “CRYSTAL FORM OF DIAZASPIROPYRAN COMPOUND” (MEDSHINE DISCOVERY INC., priority 2020, published 2023)

Key:
FLT3(ITD, F691L) = target: T1, FLT3(ITD, F691L) (Homo sapiens, UniProt P36888, F691L, form not given); type: binding
T1 construct: fused on or other part: DNA tag for the qPCR read-out (the KINOMEscan format)
T1 sequence (P36888 1-993 F691L): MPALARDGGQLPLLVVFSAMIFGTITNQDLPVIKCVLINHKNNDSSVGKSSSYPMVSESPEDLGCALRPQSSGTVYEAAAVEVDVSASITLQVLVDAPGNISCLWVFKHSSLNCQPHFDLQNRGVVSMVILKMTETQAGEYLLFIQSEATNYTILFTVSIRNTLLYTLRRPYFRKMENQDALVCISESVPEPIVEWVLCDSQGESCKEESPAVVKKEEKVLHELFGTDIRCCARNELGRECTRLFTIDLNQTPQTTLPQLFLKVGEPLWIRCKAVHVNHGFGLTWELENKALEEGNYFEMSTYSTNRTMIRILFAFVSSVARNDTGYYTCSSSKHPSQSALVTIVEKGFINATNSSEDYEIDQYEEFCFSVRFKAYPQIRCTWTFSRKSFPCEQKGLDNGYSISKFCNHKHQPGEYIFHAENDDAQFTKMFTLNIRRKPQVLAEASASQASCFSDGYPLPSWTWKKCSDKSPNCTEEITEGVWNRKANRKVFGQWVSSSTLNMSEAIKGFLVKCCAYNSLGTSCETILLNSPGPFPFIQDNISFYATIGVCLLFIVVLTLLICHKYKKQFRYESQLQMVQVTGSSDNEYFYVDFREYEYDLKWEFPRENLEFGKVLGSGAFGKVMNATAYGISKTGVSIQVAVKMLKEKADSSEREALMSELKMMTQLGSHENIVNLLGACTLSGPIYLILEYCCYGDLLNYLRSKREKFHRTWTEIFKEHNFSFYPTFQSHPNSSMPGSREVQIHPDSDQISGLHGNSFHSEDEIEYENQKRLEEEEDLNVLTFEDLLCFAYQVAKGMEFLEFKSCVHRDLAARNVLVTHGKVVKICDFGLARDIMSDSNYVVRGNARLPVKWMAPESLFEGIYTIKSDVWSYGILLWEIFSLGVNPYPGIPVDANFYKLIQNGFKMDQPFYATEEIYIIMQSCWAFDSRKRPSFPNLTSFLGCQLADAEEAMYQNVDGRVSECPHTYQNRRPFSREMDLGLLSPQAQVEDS
Protocol: (§1) The assay was carried out using KINOMEscan™ technology. The assay compounds were stored in 100% DMSO. The assay was carried out by means of 3-fold dilution and 11-point fitting. All compounds used for Kd determination were dispersed by ultrasound, then directly diluted and tested. All reactions were carried out in a 384-well polypropylene plate. Each portion has a final volume of 0.02 ml. The plate was incubated with shaking at room temperature for 1 hour, and then processed. The kinase concentration in the eluent was finally determined by qPCR method. Kd was obtained by fitting.

FLT3(D835H) = target: T2, FLT3(D835H) (Homo sapiens, UniProt P36888, D835H); type: binding
T2 sequence (P36888 27-993 D835H): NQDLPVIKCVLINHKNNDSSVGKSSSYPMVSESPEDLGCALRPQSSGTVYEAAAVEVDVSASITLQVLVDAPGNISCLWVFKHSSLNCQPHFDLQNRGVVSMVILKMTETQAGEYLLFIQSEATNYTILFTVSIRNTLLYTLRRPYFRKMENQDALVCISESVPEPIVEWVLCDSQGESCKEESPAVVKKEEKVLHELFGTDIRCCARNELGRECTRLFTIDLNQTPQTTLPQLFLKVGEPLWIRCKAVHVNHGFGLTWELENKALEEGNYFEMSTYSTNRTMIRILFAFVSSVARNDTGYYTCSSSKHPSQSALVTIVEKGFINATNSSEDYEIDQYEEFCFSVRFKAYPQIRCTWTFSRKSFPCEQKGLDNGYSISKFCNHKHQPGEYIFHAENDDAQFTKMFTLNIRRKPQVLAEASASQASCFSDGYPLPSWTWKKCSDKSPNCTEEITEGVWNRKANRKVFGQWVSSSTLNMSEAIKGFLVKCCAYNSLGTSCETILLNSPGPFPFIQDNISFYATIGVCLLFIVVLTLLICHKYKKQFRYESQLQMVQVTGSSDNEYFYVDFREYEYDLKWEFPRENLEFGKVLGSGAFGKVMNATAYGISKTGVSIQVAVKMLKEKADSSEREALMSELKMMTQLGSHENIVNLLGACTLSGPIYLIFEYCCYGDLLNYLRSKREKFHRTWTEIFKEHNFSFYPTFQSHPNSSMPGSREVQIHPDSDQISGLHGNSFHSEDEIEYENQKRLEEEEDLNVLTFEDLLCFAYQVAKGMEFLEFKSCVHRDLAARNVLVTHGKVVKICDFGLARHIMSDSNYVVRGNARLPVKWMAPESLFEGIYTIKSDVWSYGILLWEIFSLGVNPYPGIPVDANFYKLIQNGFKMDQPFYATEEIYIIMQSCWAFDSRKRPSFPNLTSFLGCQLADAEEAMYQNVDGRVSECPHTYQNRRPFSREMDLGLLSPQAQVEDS
Protocol: as §1

SMILES: CCc1nc(C(N)=O)c(Nc2ccc(N3CCC4(CCN(C)CC4)CC3)c(C)c2)nc1NC1CCOCC1.O=C(O)C(F)(F)F
- Kd (FLT3(ITD, F691L); FLT3(ITD, F691L)): 0.21 nM
- activity higher than that of the known compound B (FLT3(ITD, F691L); FLT3 (ITD, F691L), ratio of Kd versus compound B): 3.6 times
- Kd (FLT3(D835H)): 2.3 nM
